Results published in ChEMBL document CHEMBL5696439 (Cancer Res, 2010).
Activity calls are given as the source filed them. The rule behind the calls is not given here.

Experiments:
[1] = target: RAC-alpha serine/threonine-protein kinase (Homo sapiens) (UniProt P31749); assay: Inhibition of recombinant human full-length His-tagged AKT1 expressed in insect cells at 2 uM using Ser/Thr 06 as substrate measured after 1 hr by Z'-LYTE assay relative to control; conditions: Insect cell
[2] = target: Calcium/calmodulin-dependent protein kinase type 1D (Homo sapiens) (UniProt Q8IU85); assay: Inhibition of recombinant human full-length His-tagged CAMK1D expressed in insect cells at 2 uM using Ser/Thr 25 as substrate measured after 1 hr by Z'-LYTE assay relative to control; conditions: Insect cell
[3] = target: Serine/threonine-protein kinase Chk2 (Homo sapiens) (UniProt O96017); assay: Inhibition of recombinant human full-length His-tagged CHEK2 expressed in baculovirus expression system at 2 uM using Ser/Thr 07 as substrate measured after 1 hr by Z'-LYTE assay relative to control
[4] = target: Dual specificity protein kinase CLK3 (Homo sapiens) (UniProt P49761); assay: Inhibition of recombinant human full-length GST-tagged CLK3 expressed in insect cells at 2 uM using Ser/Thr 18 as substrate measured after 1 hr by Z'-LYTE assay relative to control; conditions: Insect cell
[5] = target: Death-associated protein kinase 3 (Homo sapiens) (UniProt O43293); assay: Inhibition of recombinant human full-length GST-tagged DAPK3 expressed in insect cells at 2 uM using Ser/Thr 13 as substrate measured after 1 hr by Z'-LYTE assay relative to control; conditions: Insect cell
[6] = target: Dual specificity tyrosine-phosphorylation-regulated kinase 1B (Homo sapiens) (UniProt Q9Y463); assay: Inhibition of recombinant human full-length GST-tagged DYRK1B expressed in insect cells at 2 uM using Ser/Thr 18 as substrate measured after 1 hr by Z'-LYTE assay relative to control; conditions: Insect cell
[7] = target: Tyrosine-protein kinase Fyn (Homo sapiens) (UniProt P06241); assay: Inhibition of recombinant human full-length His-tagged FYN expressed in insect cells at 2 uM using Tyr 02 as substrate measured after 1 hr by Z'-LYTE assay relative to control; conditions: Insect cell
[8] = target: Inhibitor of nuclear factor kappa-B kinase subunit beta (Homo sapiens) (UniProt O14920); assay: Inhibition of recombinant human full-length GST-tagged IKBKB expressed in insect cells at 2 uM using Ser/Thr 05 as substrate measured after 1 hr by Z'-LYTE assay relative to control; conditions: Insect cell
[9] = tested on: Mast/stem cell growth factor receptor Kit (Homo sapiens), P10721 [T670I]; assay: Inhibition of recombinant human His-tagged KIT T670I mutant (544-976 residues) expressed in insect cells at 2 uM using […] as substrate measured after 1 hr by Z'-LYTE assay relative to control
[10] = target: Tyrosine-protein kinase Lck (Homo sapiens) (UniProt P06239); assay: Inhibition of recombinant human full-length His-tagged LCK expressed in insect cells at 2 uM using Tyr 02 as substrate measured after 1 hr by Z'-LYTE assay relative to control; conditions: Insect cell
[11] = target: Leukocyte tyrosine kinase receptor (Homo sapiens) (UniProt P29376); assay: Inhibition of recombinant human GST-tagged LTK (450-864 residues) expressed in insect cells at 2 uM using Tyr 06 as substrate measured after 1 hr by Z'-LYTE assay relative to control; conditions: Insect cell
[12] = target: Mitogen-activated protein kinase kinase kinase kinase 2 (Homo sapiens) (UniProt Q12851); assay: Inhibition of recombinant human full-length His-tagged MAP4K2 expressed in insect cells at 2 uM using Ser/Thr 07 as substrate measured after 1 hr by Z'-LYTE assay relative to control; conditions: Insect cell
[13] = target: Megakaryocyte-associated tyrosine-protein kinase (Homo sapiens) (UniProt P42679); assay: Inhibition of recombinant human full length His-tagged MATK expressed in E. coli at 2 uM using Tyr 01 as substrate measured after 1 hr by Z'-LYTE assay relative to control
[14] = target: Serine/threonine-protein kinase PAK 6 (Homo sapiens) (UniProt Q9NQU5); assay: Inhibition of recombinant human full length His-tagged PAK6 expressed in insect cells at 2 uM using Ser/Thr 20 as substrate measured after 1 hr by Z'-LYTE assay relative to control; conditions: Insect cell
[15] = target: Protein kinase C theta type (Homo sapiens) (UniProt Q04759); assay: Inhibition of recombinant human PRKCQ at 2 uM using Ser/Thr 07 as substrate measured after 1 hr by Z'-LYTE assay relative to control
[16] = target: Ribosomal protein S6 kinase alpha-5 (Homo sapiens) (UniProt O75582); assay: Inhibition of recombinant human full length GST-tagged RPS6KA5 expressed in insect cells at 2 uM using Ser/Thr 01 as substrate measured after 1 hr by Z'-LYTE assay relative to control; conditions: Insect cell
[17] = target: Proto-oncogene tyrosine-protein kinase Src (Homo sapiens) (UniProt P12931); assay: Inhibition of recombinant human full length SRC N1 expressed in baculovirus expression system at 2 uM using Tyr 02 as substrate measured after 1 hr by Z'-LYTE assay relative to control
[18] = target: Serine/threonine-protein kinase 24 (Homo sapiens) (UniProt Q9Y6E0); assay: Inhibition of recombinant human full length GST-tagged STK24 expressed in insect cells at 2 uM using Ser/Thr 07 as substrate measured after 1 hr by Z'-LYTE assay relative to control; conditions: Insect cell
[19] = target: Serine/threonine-protein kinase TBK1 (Homo sapiens) (UniProt Q9UHD2); assay: Inhibition of recombinant human full length GST-tagged TBK1 expressed in insect cells at 2 uM using Ser/Thr 05 as substrate measured after 1 hr by Z'-LYTE assay relative to control; conditions: Insect cell
A549 = assay: Antiproliferative activity against human A549 cells assessed as cell growth inhibition incubated for 24 hrs by MTS assay; assay type: functional, cell-based; conditions: A549, 24 h
PC3MM2 = assay: Induction of apoptosis in human PC3MM2 cells assessed as increase in G1 phase at 1 micromol/L incubated for 24 hrs by FACS analysis; assay type: functional, cell-based; conditions: dose 1.0 µmol/L
MDA-MB-361 = assay: Antitumor activity against human MDA-MB-361 cells xenografted in female nude mouse model assessed as suppression in P-AKT at S473 level at 6 to 12 mg/kg, po qd administered as 5 days on/2 days off regimen for 4 cycles by immunoblot analysis; assay type: functional, organism-based; conditions: dose 6-12 mg/kg, time 28.0 day
mTORC2 (Homo sapiens) [20] = target: T1, mTORC2 (Homo sapiens) (UniProt P42345+Q6R327+Q9BVC4+Q9BPZ7); conditions: U-87 MG, dose 0.025-2 µmol/L, time 6.0 hrs
mTORC2 (Homo sapiens) [21] = target: T1, mTORC2 (Homo sapiens); conditions: U-87 MG, dose 0.025-2 µmol/L, time 6.0 hrs; remark: listed apart in the source
[22] = target: 3-phosphoinositide-dependent protein kinase 1 (Homo sapiens) (UniProt O15530); assay: Inhibition of recombinant human full length His-tagged PDK1 expressed in baculovirus expression system at 2 uM using Ser/Thr 06 as substrate measured after 1 hr by Z'-LYTE assay relative to control

Tyrosine-protein kinase Lck (Homo sapiens), sequence (P06239 2-509 limits assumed): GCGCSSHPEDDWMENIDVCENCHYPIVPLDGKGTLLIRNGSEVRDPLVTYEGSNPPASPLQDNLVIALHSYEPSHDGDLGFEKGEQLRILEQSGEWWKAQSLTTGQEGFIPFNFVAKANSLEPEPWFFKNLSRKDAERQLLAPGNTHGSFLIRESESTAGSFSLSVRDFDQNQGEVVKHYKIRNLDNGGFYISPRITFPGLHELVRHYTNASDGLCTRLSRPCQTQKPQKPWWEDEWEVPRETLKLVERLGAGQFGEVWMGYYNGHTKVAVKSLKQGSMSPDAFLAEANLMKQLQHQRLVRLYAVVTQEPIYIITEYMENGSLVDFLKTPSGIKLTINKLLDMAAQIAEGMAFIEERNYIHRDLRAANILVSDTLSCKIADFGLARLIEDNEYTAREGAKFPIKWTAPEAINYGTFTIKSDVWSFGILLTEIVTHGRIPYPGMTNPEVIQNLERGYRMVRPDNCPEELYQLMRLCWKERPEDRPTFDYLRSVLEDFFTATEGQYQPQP
Leukocyte tyrosine kinase receptor (Homo sapiens), sequence (P29376 whole entry, the tested form may be a part): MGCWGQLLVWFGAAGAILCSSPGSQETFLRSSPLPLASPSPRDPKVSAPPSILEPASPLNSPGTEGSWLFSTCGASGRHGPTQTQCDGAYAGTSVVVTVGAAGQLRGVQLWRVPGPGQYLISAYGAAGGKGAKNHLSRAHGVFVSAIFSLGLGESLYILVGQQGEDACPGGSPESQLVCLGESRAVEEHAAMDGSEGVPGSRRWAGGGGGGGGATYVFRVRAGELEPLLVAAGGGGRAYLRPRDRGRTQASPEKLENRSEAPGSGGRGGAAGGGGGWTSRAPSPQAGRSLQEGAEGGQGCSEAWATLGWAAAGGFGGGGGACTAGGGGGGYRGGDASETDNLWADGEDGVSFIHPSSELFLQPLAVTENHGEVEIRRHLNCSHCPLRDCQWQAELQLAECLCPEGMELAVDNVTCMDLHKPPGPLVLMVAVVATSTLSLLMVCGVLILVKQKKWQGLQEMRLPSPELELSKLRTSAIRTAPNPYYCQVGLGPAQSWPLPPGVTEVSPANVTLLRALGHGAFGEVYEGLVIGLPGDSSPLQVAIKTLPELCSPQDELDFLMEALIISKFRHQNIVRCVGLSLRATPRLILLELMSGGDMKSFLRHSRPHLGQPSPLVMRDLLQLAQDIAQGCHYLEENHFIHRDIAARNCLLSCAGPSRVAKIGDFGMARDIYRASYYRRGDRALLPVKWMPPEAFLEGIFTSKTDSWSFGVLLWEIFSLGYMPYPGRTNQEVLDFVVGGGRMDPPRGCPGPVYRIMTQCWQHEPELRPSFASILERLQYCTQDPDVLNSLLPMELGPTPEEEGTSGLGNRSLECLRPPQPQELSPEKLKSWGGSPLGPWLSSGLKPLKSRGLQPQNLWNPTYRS
Inhibitor of nuclear factor kappa-B kinase subunit beta (Homo sapiens), sequence (O14920 whole entry, the tested form may be a part): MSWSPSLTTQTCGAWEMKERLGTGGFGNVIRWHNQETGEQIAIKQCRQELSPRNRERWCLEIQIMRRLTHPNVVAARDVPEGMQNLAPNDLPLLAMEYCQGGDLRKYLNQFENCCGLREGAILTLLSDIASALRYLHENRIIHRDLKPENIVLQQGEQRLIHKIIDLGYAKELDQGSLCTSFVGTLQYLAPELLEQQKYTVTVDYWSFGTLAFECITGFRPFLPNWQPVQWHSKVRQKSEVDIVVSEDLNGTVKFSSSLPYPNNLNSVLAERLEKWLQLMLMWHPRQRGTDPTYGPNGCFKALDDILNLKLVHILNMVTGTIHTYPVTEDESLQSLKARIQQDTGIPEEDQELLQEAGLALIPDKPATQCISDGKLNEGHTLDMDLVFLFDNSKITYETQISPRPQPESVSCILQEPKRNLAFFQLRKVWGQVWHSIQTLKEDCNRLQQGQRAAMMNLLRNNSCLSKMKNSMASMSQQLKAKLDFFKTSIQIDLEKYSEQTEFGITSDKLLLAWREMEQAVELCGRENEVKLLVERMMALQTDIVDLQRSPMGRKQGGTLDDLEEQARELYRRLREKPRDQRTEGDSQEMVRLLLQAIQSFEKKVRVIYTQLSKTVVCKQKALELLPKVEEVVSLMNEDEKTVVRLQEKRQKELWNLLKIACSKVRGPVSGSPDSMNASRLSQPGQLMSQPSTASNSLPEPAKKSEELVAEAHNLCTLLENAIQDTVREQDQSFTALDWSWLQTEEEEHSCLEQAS
RAC-alpha serine/threonine-protein kinase (Homo sapiens), sequence (P31749 whole entry): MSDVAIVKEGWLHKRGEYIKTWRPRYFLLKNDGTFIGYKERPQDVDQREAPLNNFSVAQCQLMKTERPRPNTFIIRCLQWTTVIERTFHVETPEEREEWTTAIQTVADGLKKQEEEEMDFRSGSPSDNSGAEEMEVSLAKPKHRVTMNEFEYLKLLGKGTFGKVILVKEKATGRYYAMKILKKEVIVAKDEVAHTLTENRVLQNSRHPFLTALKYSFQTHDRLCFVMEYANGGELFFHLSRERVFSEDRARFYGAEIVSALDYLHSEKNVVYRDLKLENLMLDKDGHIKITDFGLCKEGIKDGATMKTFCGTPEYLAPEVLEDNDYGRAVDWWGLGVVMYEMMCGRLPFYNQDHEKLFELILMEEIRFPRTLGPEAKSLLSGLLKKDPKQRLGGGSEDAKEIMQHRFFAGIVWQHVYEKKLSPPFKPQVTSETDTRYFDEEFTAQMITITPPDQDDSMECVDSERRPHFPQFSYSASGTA
Calcium/calmodulin-dependent protein kinase type 1D (Homo sapiens), sequence (Q8IU85 whole entry, looked up): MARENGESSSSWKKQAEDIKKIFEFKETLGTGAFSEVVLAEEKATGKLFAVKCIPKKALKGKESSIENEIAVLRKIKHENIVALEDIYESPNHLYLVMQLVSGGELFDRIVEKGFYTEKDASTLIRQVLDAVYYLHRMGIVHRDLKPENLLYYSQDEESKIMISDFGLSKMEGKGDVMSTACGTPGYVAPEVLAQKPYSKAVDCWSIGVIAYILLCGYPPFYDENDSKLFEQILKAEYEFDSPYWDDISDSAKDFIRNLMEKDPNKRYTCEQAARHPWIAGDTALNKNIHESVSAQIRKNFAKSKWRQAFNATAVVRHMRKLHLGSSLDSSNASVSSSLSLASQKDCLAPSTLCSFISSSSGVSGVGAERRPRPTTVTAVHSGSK
Ribosomal protein S6 kinase alpha-5 (Homo sapiens), sequence (O75582 whole entry, looked up): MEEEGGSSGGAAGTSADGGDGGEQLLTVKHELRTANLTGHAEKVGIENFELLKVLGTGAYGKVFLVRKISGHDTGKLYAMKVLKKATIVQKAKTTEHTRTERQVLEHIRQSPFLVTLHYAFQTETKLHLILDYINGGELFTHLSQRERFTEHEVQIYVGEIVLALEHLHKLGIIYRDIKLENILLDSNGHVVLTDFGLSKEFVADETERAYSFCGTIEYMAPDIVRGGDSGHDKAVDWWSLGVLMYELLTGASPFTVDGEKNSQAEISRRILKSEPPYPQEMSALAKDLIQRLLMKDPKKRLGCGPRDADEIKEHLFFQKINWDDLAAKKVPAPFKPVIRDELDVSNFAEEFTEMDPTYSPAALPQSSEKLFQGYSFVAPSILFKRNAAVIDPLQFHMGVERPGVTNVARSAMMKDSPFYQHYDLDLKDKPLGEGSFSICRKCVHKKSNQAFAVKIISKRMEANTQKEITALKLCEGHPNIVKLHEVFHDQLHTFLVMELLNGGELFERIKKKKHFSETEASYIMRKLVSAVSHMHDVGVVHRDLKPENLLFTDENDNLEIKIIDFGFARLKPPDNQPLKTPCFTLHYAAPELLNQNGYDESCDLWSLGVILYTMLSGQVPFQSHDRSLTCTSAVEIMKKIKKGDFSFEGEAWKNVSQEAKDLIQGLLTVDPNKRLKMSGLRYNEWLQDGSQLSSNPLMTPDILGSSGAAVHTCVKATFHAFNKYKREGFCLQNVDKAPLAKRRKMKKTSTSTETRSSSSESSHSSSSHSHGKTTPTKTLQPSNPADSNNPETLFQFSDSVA
Megakaryocyte-associated tyrosine-protein kinase (Homo sapiens), sequence (P42679 whole entry): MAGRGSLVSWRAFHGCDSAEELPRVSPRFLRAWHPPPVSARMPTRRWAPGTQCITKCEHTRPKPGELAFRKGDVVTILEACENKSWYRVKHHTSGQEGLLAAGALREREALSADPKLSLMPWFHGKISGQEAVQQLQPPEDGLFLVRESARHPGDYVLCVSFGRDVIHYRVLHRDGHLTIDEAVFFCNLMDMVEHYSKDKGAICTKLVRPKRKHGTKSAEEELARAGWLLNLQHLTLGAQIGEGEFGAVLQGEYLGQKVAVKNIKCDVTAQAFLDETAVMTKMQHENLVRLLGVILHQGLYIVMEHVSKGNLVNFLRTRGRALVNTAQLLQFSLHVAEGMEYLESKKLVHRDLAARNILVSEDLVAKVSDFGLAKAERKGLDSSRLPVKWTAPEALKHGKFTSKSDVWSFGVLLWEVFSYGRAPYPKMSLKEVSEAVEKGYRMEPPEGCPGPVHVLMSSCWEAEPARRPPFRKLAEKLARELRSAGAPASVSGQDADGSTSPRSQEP
Protein kinase C theta type (Homo sapiens), sequence (Q04759 whole entry, looked up): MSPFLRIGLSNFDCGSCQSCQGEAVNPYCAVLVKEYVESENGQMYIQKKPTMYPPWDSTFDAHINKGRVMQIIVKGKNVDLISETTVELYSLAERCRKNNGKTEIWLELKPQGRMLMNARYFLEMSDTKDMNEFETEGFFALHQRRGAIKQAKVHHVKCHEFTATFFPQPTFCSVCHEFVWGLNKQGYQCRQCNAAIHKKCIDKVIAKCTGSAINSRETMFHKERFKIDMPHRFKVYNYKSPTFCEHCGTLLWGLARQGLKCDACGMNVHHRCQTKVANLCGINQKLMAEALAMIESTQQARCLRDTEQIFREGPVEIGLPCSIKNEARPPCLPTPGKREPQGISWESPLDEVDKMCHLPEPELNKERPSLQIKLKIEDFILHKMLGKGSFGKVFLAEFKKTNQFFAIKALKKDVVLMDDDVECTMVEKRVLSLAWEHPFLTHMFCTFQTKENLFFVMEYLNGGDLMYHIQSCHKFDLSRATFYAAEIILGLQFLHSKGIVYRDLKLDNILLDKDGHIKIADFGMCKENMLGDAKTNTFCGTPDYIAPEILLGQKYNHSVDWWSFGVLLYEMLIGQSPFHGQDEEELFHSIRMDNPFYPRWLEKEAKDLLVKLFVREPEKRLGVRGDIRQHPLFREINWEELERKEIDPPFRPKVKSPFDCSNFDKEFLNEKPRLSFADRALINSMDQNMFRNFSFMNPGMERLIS

Compound: CNC(=O)Nc1ccc(-c2nc(N3CC4CCC(C3)O4)c3cnn(C4CCC5(CC4)OCCO5)c3n2)cc1
- inhibition [1]: -5%
- inhibition [2]: 0%
- inhibition [3]: 3%
- inhibition [4]: 2%
- inhibition [5]: 2%
- inhibition [6]: 2%
- inhibition [7]: 2%
- inhibition [8]: -5%
- inhibition [9]: 7%
- inhibition [10]: 10%
- inhibition [11]: 8%
- inhibition [12]: 3%
- inhibition [13]: 2%
- inhibition [14]: 9%
- inhibition [15]: 5%
- inhibition [16]: 1%
- inhibition [17]: 7%
- inhibition [18]: -1%
- inhibition [19]: 2%
- IC50 (A549): 102 nM
- Activity (PC3MM2): Active
- Activity (MDA-MB-361): Active
- inhibition (mTORC2 (Homo sapiens) [20]): Active
- inhibition (mTORC2 (Homo sapiens) [21]): Active
- inhibition [22]: 3%
